Test results: patent US8946431B2, “2-(substituted ethynyl)quinoline derivatives as mGLUr5 antagonists” (Korea Institute of Science and Technology, priority 2013, dated 2015)
Where two headings read alike, the source gives them in different places. Marks after values point to notes of the source that are not given here.

Assays:
mGluR5 [1] = target: T1, mGluR5 (Homo sapiens, UniProt P41594); assay: Assay for m-GluR5 activity using FDSS6000 (calcium mobilization by L-glutamate in mGluR5/HEK293 cells); format: cell-based; details: HEK293, L-glutamate 10 uM, HEK cells expressing m-GluR5, read-out: % Inhibition rate (mGluR5)
T1 construct: host or cells: HEK293 (human embryonic kidney) cells stably expressing m-GluR5
Experimental: Inhibitory activity (%) of the compound represented by Formula 1 on calcium mobilization developed at a high concentration of glutamate in mGluR5/HEK293 cells was measured by using a high throughput FDSS6000.
After HEK cells stably expressing m-GluR5 (Human embryonic kidney cell line; m-GluR5: Yonsei University) were prepared at a density of 4×10^4/Ml per well, aliquots of 100 μl from the cell suspension were distributed evenly into a 96-well plate and incubated for 18 hr at 37° C., 5% CO2. The well plate was washed with a HBSS buffer to remove the culture medium, and reacted with a HBSS buffer containing a Ca^2+ fluorescent dye (FLIPR Calcium 5 assay kit: Molecular Devices) for 30 min at 37° C., 5% CO2, thereby labeling with the fluorescent dye. Separately from the 96-well plate including the cells, another 96-well plate including L-glutamate (final concentration: 10 uM) capable of activating m-GluR5 and a blacking agent was prepared. Since most of cell-based HTS devices are equipped with a liquid application system for injection of a drug, but have no liquid sucking system, the blocking agent to be tested and L-glutamate were respectively provided at a 6-fold higher concentration in a HBSS buffer at the amount of 25 μl, diluted by six-times at the final cell plate volume of 150 μl, and then used in this assay. Briefly, the FDSS6000 assay was carried out by recording a reference level of 20 sec, pre-treating with a blocking agent for 75 sec, and then measuring the change in intracellular calcium level depending on the administration of L-glutamate. After the area of a 480/520 ratio value in a control without treatment of a test drug was set to 100%, an inhibitory effect of the test drug was calculated as a percentage (%) thereon.
For accurate calcium imaging, the light source of 4 xenon lamps in FDSS6000 were radiated to selectively expose the cells to the excitation wavelength (480 nm) by a computer-controlled filter wheel. Data were obtained at intervals of 1.23 sec. The emitter fluorescence light inflowed through a 520 nm long-pass filter was obtained as an average 480/520 ratio value for each well in the 96-wells by using a CCD camera and a digital fluorescence analyzer in FDSS6000. All image data and analyses were obtained by using a FDSS6000-exclusive program from Hamamatsu Photonics.

mGluR5 [2] = target: T1, mGluR5; assay: Inhibitory concentration (IC50) on mGluR5; format: cell-based
hERG = hERG (Homo sapiens, UniProt Q12809); assay: Inhibitory concentration (IC50) on hERG
[3] = HLM (human liver microsomal) stability; format: in vitro ADME; details: human liver microsomes
CYP2D6 = CYP2D6 (Homo sapiens, UniProt P10635); assay: CYP inhibitory rate, CYP2D6; format: in vitro ADME
CYP2C9 = CYP2C9 (Homo sapiens, UniProt P11712); assay: CYP inhibitory rate, CYP2C9; format: in vitro ADME
CYP3A4 = CYP3A4 (Homo sapiens, UniProt P08684); assay: CYP inhibitory rate, CYP3A4; format: in vitro ADME
[4] = system: SNL (spinal nerve ligation) neuropathic pain models; assay: In vivo test in SNL (spinal nerve ligation) neuropathic pain models; details: orally administered, SNL model, compared with gabapentin as control (FIG. 1 C, D)
Description: The compound prepared in Example 26 was subjected to an in vivo test as follows. […] Here, gabapentin was used as a control.

[5] = rat

T1 sequence (P41594 21-1212): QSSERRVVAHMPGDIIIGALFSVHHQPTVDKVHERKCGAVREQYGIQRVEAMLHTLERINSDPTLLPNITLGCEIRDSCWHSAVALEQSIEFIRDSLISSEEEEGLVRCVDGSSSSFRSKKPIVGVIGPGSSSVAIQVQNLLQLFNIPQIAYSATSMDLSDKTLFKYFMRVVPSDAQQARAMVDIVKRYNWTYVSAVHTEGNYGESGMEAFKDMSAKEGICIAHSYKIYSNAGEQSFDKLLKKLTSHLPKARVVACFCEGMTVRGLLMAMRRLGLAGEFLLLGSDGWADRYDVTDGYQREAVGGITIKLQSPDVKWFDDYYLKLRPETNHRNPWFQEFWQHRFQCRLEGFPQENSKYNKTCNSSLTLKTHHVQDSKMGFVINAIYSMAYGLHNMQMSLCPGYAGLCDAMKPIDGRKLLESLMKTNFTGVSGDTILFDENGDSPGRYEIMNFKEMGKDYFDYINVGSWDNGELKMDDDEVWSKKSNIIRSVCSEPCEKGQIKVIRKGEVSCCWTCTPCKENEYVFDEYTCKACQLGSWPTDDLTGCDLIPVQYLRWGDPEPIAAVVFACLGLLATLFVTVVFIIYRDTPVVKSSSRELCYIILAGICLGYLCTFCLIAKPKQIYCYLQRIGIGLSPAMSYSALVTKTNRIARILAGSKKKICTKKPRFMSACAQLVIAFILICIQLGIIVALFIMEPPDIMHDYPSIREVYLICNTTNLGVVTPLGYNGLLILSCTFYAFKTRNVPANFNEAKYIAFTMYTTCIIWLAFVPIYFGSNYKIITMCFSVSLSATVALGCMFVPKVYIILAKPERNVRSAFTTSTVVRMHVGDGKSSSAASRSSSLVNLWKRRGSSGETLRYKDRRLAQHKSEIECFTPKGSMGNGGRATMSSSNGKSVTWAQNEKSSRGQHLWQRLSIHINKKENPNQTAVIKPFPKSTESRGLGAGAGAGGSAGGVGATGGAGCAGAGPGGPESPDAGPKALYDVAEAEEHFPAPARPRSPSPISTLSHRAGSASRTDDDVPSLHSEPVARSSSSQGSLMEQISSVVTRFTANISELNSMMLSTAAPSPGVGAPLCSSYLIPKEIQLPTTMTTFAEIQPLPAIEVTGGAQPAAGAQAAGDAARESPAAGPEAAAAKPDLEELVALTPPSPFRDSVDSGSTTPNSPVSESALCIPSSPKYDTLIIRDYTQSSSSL
Sequence of hERG (Q12809 whole entry): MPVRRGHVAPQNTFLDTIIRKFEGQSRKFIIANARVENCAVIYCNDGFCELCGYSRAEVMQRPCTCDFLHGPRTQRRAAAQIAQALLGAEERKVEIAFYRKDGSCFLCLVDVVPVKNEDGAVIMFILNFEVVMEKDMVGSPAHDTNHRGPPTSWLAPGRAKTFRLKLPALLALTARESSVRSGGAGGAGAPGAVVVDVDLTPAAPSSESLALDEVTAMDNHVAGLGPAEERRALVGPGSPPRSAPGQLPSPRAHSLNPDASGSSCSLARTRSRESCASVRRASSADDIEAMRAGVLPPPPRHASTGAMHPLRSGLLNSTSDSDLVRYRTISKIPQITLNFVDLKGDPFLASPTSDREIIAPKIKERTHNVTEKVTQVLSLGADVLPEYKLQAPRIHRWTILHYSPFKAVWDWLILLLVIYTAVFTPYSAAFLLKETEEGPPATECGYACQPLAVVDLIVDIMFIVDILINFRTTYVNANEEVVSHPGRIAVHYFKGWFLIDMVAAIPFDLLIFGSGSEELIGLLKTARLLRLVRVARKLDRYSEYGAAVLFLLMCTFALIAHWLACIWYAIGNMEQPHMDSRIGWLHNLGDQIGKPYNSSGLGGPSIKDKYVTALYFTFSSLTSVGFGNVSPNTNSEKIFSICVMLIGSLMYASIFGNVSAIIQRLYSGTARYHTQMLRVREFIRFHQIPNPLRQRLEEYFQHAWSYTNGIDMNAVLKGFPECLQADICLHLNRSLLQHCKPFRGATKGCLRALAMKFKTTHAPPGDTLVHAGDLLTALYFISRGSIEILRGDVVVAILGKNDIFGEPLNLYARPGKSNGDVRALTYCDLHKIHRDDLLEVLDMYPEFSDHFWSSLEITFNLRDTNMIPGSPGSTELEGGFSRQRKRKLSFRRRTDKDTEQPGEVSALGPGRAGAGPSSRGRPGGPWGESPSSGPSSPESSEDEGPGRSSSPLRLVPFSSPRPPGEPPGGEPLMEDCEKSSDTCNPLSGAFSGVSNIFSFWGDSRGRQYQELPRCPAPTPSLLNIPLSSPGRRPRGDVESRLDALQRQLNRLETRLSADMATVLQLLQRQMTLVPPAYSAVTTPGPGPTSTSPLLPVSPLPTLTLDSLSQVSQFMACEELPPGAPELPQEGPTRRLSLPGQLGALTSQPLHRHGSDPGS
Sequence of CYP2C9 (P11712 whole entry): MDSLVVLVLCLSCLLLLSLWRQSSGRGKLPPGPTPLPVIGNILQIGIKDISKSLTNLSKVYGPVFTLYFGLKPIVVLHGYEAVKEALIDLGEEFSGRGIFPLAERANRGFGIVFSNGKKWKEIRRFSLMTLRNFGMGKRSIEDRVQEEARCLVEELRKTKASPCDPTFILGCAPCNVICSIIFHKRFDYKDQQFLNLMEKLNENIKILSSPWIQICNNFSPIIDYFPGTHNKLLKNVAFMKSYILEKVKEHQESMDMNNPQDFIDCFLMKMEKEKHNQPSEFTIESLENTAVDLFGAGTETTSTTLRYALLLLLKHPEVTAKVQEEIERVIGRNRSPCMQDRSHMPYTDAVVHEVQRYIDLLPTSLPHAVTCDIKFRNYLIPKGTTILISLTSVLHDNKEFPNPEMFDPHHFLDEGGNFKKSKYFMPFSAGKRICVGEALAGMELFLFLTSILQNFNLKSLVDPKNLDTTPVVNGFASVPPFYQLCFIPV
Sequence of CYP3A4 (P08684 whole entry): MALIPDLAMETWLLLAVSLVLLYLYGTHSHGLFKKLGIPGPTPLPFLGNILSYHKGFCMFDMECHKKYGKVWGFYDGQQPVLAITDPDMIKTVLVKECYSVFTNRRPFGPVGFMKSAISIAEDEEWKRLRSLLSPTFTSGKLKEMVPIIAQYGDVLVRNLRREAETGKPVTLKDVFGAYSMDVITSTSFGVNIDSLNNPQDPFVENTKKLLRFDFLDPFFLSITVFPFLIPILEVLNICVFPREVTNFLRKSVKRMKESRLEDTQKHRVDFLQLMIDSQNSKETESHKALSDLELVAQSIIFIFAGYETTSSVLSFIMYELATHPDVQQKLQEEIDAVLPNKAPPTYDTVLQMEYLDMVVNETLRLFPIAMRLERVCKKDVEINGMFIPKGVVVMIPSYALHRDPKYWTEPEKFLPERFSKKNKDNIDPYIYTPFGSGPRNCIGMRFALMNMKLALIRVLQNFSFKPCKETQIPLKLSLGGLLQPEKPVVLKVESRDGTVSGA
Sequence of CYP2D6 (P10635 whole entry): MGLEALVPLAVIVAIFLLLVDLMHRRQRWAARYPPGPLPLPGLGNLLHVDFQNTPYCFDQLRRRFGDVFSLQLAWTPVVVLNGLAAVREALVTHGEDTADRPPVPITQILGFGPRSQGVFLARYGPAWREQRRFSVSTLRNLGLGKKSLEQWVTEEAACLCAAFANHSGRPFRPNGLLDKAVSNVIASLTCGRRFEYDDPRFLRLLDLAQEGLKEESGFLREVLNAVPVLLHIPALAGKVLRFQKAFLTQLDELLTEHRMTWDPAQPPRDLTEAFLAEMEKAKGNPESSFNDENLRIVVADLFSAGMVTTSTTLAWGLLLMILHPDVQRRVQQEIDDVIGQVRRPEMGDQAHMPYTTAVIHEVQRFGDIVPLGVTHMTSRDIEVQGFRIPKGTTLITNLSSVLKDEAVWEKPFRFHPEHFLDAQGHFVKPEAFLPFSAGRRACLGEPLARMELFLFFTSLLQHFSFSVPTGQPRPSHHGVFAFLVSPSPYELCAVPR

Work on `C(#Cc1ccc2ccccc2n1)c1ccccn1` [Example 26, 2-(Pyridine-2-ylethynyl)quinoline] yielded an inhibition at 1 µM (mGluR5 [1]; 1 μM compound) of 58.8%, an inhibition at 10 µM (mGluR5 [1]; 10 μM compound) of 76.7% and an IC50 (mGluR5 [2]) of 0.94 ± 0.25 µM. For the same compound, the IC50 (hERG) was 20.3 ± 6.11 µM, the “HLM % remaining after 30 min” value [3] was 88% and the “CYP (% remaining @ 10 μM) CYP2D6” value (CYP2D6) was 98%. For the same compound, the “CYP (% remaining @ 10 μM) CYP2C9” value (CYP2C9) was over 99%, the “CYP (% remaining @ 10 μM) CYP3A4” value (CYP3A4) was 77% and the “inhibitory effect on cold allodynia” value [4] was “higher inhibitory effect”. The CL ([5]; intravenous injection (n=4)) was 84.93 (±8.98) mL/min/kg, the T1/2 ([5]; intravenous injection (n=4)) was 58.24 (±62.41) min and the Vdss ([5]; intravenous injection (n=4)) was 1269.02 (±158.55) mL/kg. For the same compound, the F ([5]; oral administration) was 15.9%, the Cmax ([5]; oral administration (n=3)) was 0.43 (±0.18) μg/mL and the T1/2 ([5]; oral administration (n=3)) was 48.53 (±8.06) min. For the same compound, the Tmax ([5]; oral administration (n=3), median value (range)) was 10 (5-30)^a min.
